Like-named read-outs stand apart in the source and are kept apart here.
Key:
[1] = cited from earlier work
CYP3A4/5 = test: CYP inhibition in pooled human liver microsomes; assay type: in vitro ADME; conditions: without preincubation, pooled human liver microsomes

Row | IC50 (CYP3A4/5; probe midazolam, substrate midazolam) [nM] | IC50 (CYP3A4/5; probe testosterone, substrate testosterone) [nM] | SMILES | Cmax ([1]; after 15‐day, 200 mg daily oral dosing) [nM] | Mean concentration in pulmonary alveolar cells relative to lung epithelial lining fluid and plasma ([1]; 14‐day oral 400 mg twice daily, steady state) | Cmax ([1]; after 200 mg three times daily oral dosing) [nM]
1 |  |  | CCC(C)n1ncn(-c2ccc(N3CCN(c4ccc(OCC5COC(Cn6cncn6)(c6ccc(Cl)cc6Cl)O5)cc4)CC3)cc2)c1=O (centres unmarked) [itraconazole] | 1520 |  | 
2 | 320 | 81 | CC[C@@H]([C@H](C)O)n1ncn(-c2ccc(N3CCN(c4ccc(OC[C@@H]5CO[C@@](Cn6cncn6)(c6ccc(F)cc6F)C5)cc4)CC3)cc2)c1=O [posaconazole, reference compound] |  | over 30 fold | 830

From paper PMC7749516, “Safety and nonclinical and clinical pharmacokinetics of PC945, a novel inhaled triazole antifungal agent” (Pharmacology Research & Perspectives, 2020)
